This is an account of results in US20050090517A1, “Pharmaceutical combinations of cox-2 inhibitors and opiates” (priority 2002, published 2005).

The test system of assay [1] is noxious ischaemia to the tail of Sprague-Dawley rats. The assay can be described thus: Nociception during noxious ischaemia of the rat tail (tourniquet, escape latency). The format is in vivo. The settings on record: median (95% confidence interval), n=10, cut-off 30 min.
Description: Sprague-Dawley rats (Rattus norvegicus) both genders weighing 250-450 g were used for nociceptive tests. The rats were housed individually at an ambient temperature of 21-23° C. on a 12-hour light; 12-hour dark cycle, and were allowed free access to standard rat chow and tap water. Groups of ten rats were used for each test. Rats were returned to stock, and in good health, after the tests.
Ischaemia was induced by applying an inflatable tourniquet to the base of the restrained rat's tail, as detailed previously (Gelgor et al., 1992). […] The time between application of the tourniquet and the escape response, that is the escape latency, is a measure of sensitivity to the noxious stimulus induced by ischaemia. To prevent tissue damage, the tourniquet was removed if the rat had not responded within 30 min.
(§1) The tail flick latency (mean of three measurements, 1 min apart) was measured and then the agent under test was administered. Thirty minutes later the tourniquet (or sham tourniquet) was applied and the escape latency measured. Immediately after release of the tourniquet, the tail flick latency was again measured, and the measurements were repeated after 30 and 60 min of reperfusion. Following inspection of the data at all three periods of reperfusion, the investigations elected to base their assessment of antihyperalgesic activity on data obtained immediately after release of the tourniquet.
Paracetamol, meloxicam and codeine phosphate were provided by the applicant. Codeine phosphate was dissolved in water. Meloxicam was dissolved in sunflower oil. Paracetamol was suspended in sunflower oil. All three agents were administered in boluses of 0.2 ml, and the paracetamol suspension was flushed with water. In control experiments, the appropriate vehicle (water, sunflower oil, or both) was administered.
Each agent was administered separately, at three doses, to determine the antinociceptve activity, if any, of each independently. Pairs of agents then were administered at three doses for each pair. Finally, the combination of the three agents was administered, at three doses. […]
For assay [2], the system named is reperfusion hyperalgesia of the tail of Sprague-Dawley rats. The assay can be described thus: Reperfusion hyperalgesia of the rat tail following transient ischaemia (tail flick latency, antihyperalgesic index). Format: in vivo. Conditions: for ED50: Rattus norvegicus, read-out: ED50 (dose at which reperfusion hyperalgesia is reduced by 50%), agent separately. (In general: Thermal pain tests record how soon the animal reacts.)
Description: Sprague-Dawley rats (Rattus norvegicus) both genders weighing 250-450 g were used for nociceptive tests. The rats were housed individually at an ambient temperature of 21-23° C. on a 12-hour light; 12-hour dark cycle, and were allowed free access to standard rat chow and tap water. Groups of ten rats were used for each test.
The response of the rats to a noxious thermal stimulus was measured using a modified tail flick test, the details of which have previously been described (Gelgor et al., 1992). The rat's tail was submerged in a water bath controlled at 49° C., and the time to the first coordinated motor response of the tail measured, with a safety cut-off at 30 s. Tail skin temperature was maintained at 29° C. by placing all but the proximal 20 mm of the rat's tail in a temperature-controlled bath, before and between measurements, to obviate the potential confounding effects of changes in tail temperature on tail flick latency (Tjolsen et al., 1989).
The hyperalgesia which occurs during reperfusion of the tail following transient ischaemia, that is following the release of the tourniquet mentioned above, was measured by comparing the tail flick latency during reperfusion with that measured in the same animal before application of the tourniquet. Hyperalgesia is manifest as a reduced tail flick latency during reperfusion, and lasts about one hour (Gelgor et al., 1992).
as §1
Codeine phosphate was dissolved in water. Meloxicam was dissolved in sunflower oil. Paracetamol was suspended in sunflower oil. All three agents were administered in boluses of 0.2 ml, and the paracetamol suspension was flushed with water. In control experiments, the appropriate vehicle (water, sunflower oil, or both) was administered.
Each agent was administered separately, at three doses, to determine the antinociceptve activity, if any, of each independently. Pairs of agents then were administered at three doses for each pair. Finally, the combination of the three agents was administered, at three doses. In all cases, the ratio of the agents was fixed at 1 meloxicam: 4 codeine: 266 paracetamol.
Antihyperalgesia is measured by the extent to which an agent reverses the hyperalgesia induced by conditioning event, which, in the test case, was transient ischaemia. An antihyperalgesic index of zero means complete lack of antihyperalgesic activity, an index of 100% means full reversal of the hyperalgesia, and an index of more than 100% implies some analgesic activity added to the antihyperalgesic activity.

Where [3] appears, read: oral, single agent, least-squares regression, n=9 or 10, immediately after release of tourniquet.

Read-outs that look alike come from different tables or passages of the source.

By ED50 is commonly meant the dose that gives a 50% effect, or the effect in half of the subjects. With `CC(=O)Nc1ccc(O)cc1` [Paracetamol, paracetamol], the “Escape latency (min), Agent” value in assay [1] (paracetamol 266 mg/kg oral 30 min earlier) is 18.2 (9.2-30.0) min. In addition, in assay [2] (setting [3]), the ED50 is over 266 mg/kg. For the same compound, in assay [2] (oral, three doses each (FIG. 2), paracetamol limited to 266 mg/kg), the “Antihyperalgesic activity of each agent administered separately, in words” value is “did not exhibit any antihyperalgesic activity”. For the same compound, the “Antihyperalgesic activity of the agent on its own at its dose in the ED50 of the triple combination, in words” value in assay [2] (rat, in vivo) is on record as “no antihyperalgesic activity”.
Take `COc1ccc2c3c1O[C@H]1[C@@H](O)C=C[C@H]4[C@@H](C2)N(C)CC[C@@]341` [Codeine, codeine phosphate]: the “Escape latency (min), Agent” value in assay [1] (codeine 20 mg/kg oral 30 min earlier) was 20.9 (11.9-30.0) min. Also, the ED50 in assay [2] (po) stood at 2.4 mg/kg.
As to `Cc1cnc(NC(=O)C2=C(O)c3ccccc3S(=O)(=O)N2C)s1` [Meloxicam, meloxicam], the “Escape latency (min), Agent” value in assay [1] (meloxicam 5 mg/kg oral 30 min earlier) is 25.3 (15.7-30.0) min. Further, the 50% effective dose (ED50) in assay [2] (setting [3]) is 2.6 mg/kg.
